Assays:
U-2932 = conditions: in combination with Compound 292
Procedure: (§1) The method is described as follows. Cells are thawed from a liquid nitrogen preserved state. Once cells have been expanded and divide at their expected doubling times, screening begins. Cells are seeded in growth media in either black 1536-well or 384-well tissue culture treated plates. […] These Tzero (T0) plates are read using ultra-sensitive luminescence on Envision plate readers (Perkin Elmer). […] All data points are collected via automated processes, quality controlled and analyzed using Zalicus software.
(§2) I ranges from 0% (when T=V) to 100% (when T=0). […] The measure of effect in the experiment can be the inhibition of cellular response relative to the untreated level (vehicle alone). For untreated vehicle and treated levels V and T, a fractional inhibition 1=1−T/V is calculated. The inhibition ranges from 0% at the untreated level to 100% when T=0 Inhibition levels are negative for agents that actually increase levels. Other effect measures, such as an activity ratio r=T/V may be more appropriate for some assays. When activity ratios (e.g, fold increase over […] control) are being used, the effect can be measured using an induction I=1n(T/V). With this definition, all effect expressions are the same as for inhibition.
(§3) Growth Inhibition (GI) is used as a measure of cell viability. […] A GI reading of 100% represents complete growth inhibition-T72 compound-treated and T0 vehicle signals are matched. […] A GI reading of 200% represents complete death of all cells in the culture well. Compounds reaching an activity plateau of GI 200% are considered cytotoxic. GI is calculated by applying the following test and equation: […]
(§4) Combination analysis data were collected in a 6×6 dose matrix. Synergy is calculated by comparing a combination's response to those of its single compound, against the drug-with-itself dose-additive reference model. Deviations from dose additivity may be assessed visually on an isobologram or numerically with a Combination Index (CI). […] Additive effect is CI=1.0. […] Antagonistic effect is CI>1.0.
(§5) To measure combination effects in excess of Loewe additivity, a scalar measure to characterize the strength of synergistic interaction termed the Synergy Score is devised. The Synergy Score is calculated as: […]
(§6) The fractional inhibition for each component agent and combination point in the matrix is calculated relative to the median of all vehicle-treated control wells. The Synergy Score equation integrates the experimentally-observed activity volume at each point in the matrix in excess of a model surface numerically derived from the activity of the component agents using the Loewe model for additivity. Additional terms in the Synergy Score equation (above) are used to normalize for various dilution factors used for individual agents and to allow for comparison of synergy scores across an entire experiment. The inclusion of positive inhibition gating or an Idata multiplier removes noise near the zero effect level, and biases results for synergistic interactions at that occur at high activity levels.
(§7) Loewe Volume (Loewe Vol) is used to assess the overall magnitude of the combination interaction in excess of the Loewe additivity model. Loewe Volume is particularly useful when distinguishing synergistic increases in a phenotypic activity (positive Loewe Volume) versus synergistic antagonisms (negative Loewe Volume). […] This model defines additivity as a non-synergistic combination interaction where the combination dose matrix surface should be indistinguishable from either drug crossed with itself.

HBL-1 = conditions: in combination with Compound 292
Procedure: as §1, §2, §3, §4, §5, §6, §7

SU-DHL-10-epst = conditions: in combination with Compound 292
Procedure: as §1, §2, §3, §4, §5, §6, §7

GRANTA-519 = conditions: in combination with Compound 292
Procedure: as §1, §2, §3, §4, §5, §6, §7

OPM-2 = conditions: in combination with Compound 292
Procedure: as §1, §2, §3, §4, §5, §6, §7

SU-DHL-4-epst = conditions: in combination with Compound 292
Procedure: as §1, §2, §3, §4, §5, §6, §7

OCI-LY3 = conditions: in combination with Compound 292
Procedure: as §1, §2, §3, §4, §5, §6, §7

OCI-Ly7 = conditions: in combination with Compound 292
Procedure: as §1, §2, §3, §4, §5, §6, §7

WSU-NHL = conditions: in combination with Compound 292
Procedure: as §1, §2, §3, §4, §5, §6, §7

Jeko-1 = conditions: in combination with Compound 292
Procedure: as §1, §2, §3, §4, §5, §6, §7

NCI-H929 = conditions: in combination with Compound 292
Procedure: as §1, §2, §3, §4, §5, §6, §7

KARPAS-299 = conditions: in combination with Compound 292
Procedure: as §1, §2, §3, §4, §5, §6, §7

TMD8 = conditions: in combination with Compound 292
Procedure: as §1, §2, §3, §4, §5, §6, §7

KARPAS-422 = conditions: in combination with Compound 292
Procedure: as §1, §2, §3, §4, §5, §6, §7

DOHH-2 = conditions: in combination with Compound 292
Procedure: as §1, §2, §3, §4, §5, §6, §7

HH = conditions: in combination with Compound 292
Procedure: as §1, §2, §3, §4, §5, §6, §7

Mino = conditions: in combination with Compound 292
Procedure: as §1, §2, §3, §4, §5, §6, §7

Farage = conditions: in combination with Compound 292
Procedure: as §1, §2, §3, §4, §5, §6, §7

[1] = test system: phospho-AKT in OCI-LY-8 cells; test: phospho-AKT after BCR crosslinking; assay type: cell-based
Procedure: Activation of the PI3K pathway is an important component of normal B-cell receptor (BCR) signaling and has been implicated in the pathogenesis of DLBCL. […] There was rapid modulation of phospho-AKT and phospho-PRAS40 by 30 minutes, whereas modulation of phospho-S6 was not detected until after 8 hours.
These biochemical findings indicate a mechanistic rationale for combination of PI3K-δ,γ and BTK inhibition.

phospho-BTK in SU-DHL-4 = test: phospho-BTK in DLBCL cells; assay type: cell-based
[2] = test system: SU-DHL-4 GCB DLBCL cell line; test: Cell viability with Compound 292, ibrutinib or combination, 72 h CellTiter Glo; assay type: cell-based; conditions: SU-DHL-4, 72 hours
RL = test: Combination with BTK inhibitor, 72 h ATPLite, 6x6 dose matrix (follicular lymphoma); assay type: cell-based; conditions: in combination with Compound 292
Procedure: as §1, §2, §3, §4, §5, §6, §7

Which “CI50 (growth inhibition)” value (U-2932) does the source give for `C=CC(=O)N1CCC[C@@H](n2nc(-c3ccc(Oc4ccccc4)cc3)c3c(N)ncnc32)C1` [ibrutinib, 1-[(3R)-3-[4-Amino-3-(4-phenoxyphenyl)pyrazolo[3,4-d]pyrimidin-1-yl]piperidin-1-yl]prop-2-en-1-one] here?
The value was “S (S=0.01 to <0.5)”.

What about the “CI50 (inhibition)” value (U-2932) of the same compound?
Its value is “T (T=0.5 to <0.7)”.

What about the “Synergy Score (growth inhibition)” value (U-2932) of the same compound?
The value was “A2 (A2=1 to <3)”.

And the “Synergy Score (inhibition)” value (U-2932)?
Its value is “A1 (A1=0.0001 to <1)”.

What about the “CI50 (growth inhibition)” value (HBL-1) of the same compound?
The value was “S (S=0.01 to <0.5)”.

And the “Synergy Score (growth inhibition)” value (HBL-1)?
Its value is “A3 (A3=>3)”.

What about the “Synergy Score (inhibition)” value (HBL-1) of the same compound?
The value was “A1 (A1=0.0001 to <1)”.

What about the “CI50 (growth inhibition)” value (SU-DHL-10-epst) of the same compound?
Its value is “S (S=0.01 to <0.5)”.

What about the “CI50 (inhibition)” value (SU-DHL-10-epst) of the same compound?
The value was “S (S=0.01 to <0.5)”.

What about the “Synergy Score (growth inhibition)” value (SU-DHL-10-epst) of the same compound?
Its value is “A3 (A3=>3)”.

And the “Synergy Score (inhibition)” value (SU-DHL-10-epst)?
Its value is “A3 (A3=>3)”.

And the “CI50 (growth inhibition)” value (GRANTA-519)?
The value was “S (S=0.01 to <0.5)”.

And the “Synergy Score (growth inhibition)” value (GRANTA-519)?
Its value is “A2 (A2=1 to <3)”.

What about the “Synergy Score (inhibition)” value (GRANTA-519) of the same compound?
Its value is “A1 (A1=0.0001 to <1)”.

What about the “Synergy Score (growth inhibition)” value (OPM-2) of the same compound?
Its value is “A1 (A1=0.0001 to <1)”.

What about the “Synergy Score (inhibition)” value (OPM-2) of the same compound?
The value was “A1 (A1=0.0001 to <1)”.

And the “CI50 (growth inhibition)” value (SU-DHL-4-epst)?
Its value is “S (S=0.01 to <0.5)”.

What about the “CI50 (inhibition)” value (SU-DHL-4-epst) of the same compound?
Its value is “S (S=0.01 to <0.5)”.

And the “Synergy Score (growth inhibition)” value (SU-DHL-4-epst)?
Its value is “A3 (A3=>3)”.

What about the “Synergy Score (inhibition)” value (SU-DHL-4-epst) of the same compound?
The value was “A3 (A3=>3)”.

And the “Synergy Score (growth inhibition)” value (OCI-LY3)?
The value was “A1 (A1=0.0001 to <1)”.

And the “Synergy Score (inhibition)” value (OCI-LY3)?
The value was “A1 (A1=0.0001 to <1)”.

What about the “Synergy Score (growth inhibition)” value (OCI-Ly7) of the same compound?
Its value is “A1 (A1=0.0001 to <1)”.

What about the “Synergy Score (inhibition)” value (OCI-Ly7) of the same compound?
Its value is “A1 (A1=0.0001 to <1)”.

And the “CI50 (growth inhibition)” value (WSU-NHL)?
Its value is “T (T=0.5 to <0.7)”.

And the “CI50 (inhibition)” value (WSU-NHL)?
Its value is “S (S=0.01 to <0.5)”.

What about the “Synergy Score (growth inhibition)” value (WSU-NHL) of the same compound?
The value was “A3 (A3=>3)”.

And the “Synergy Score (inhibition)” value (WSU-NHL)?
The value was “A3 (A3=>3)”.

What about the “CI50 (growth inhibition)” value (Jeko-1) of the same compound?
Its value is “S (S=0.01 to <0.5)”.

And the “CI50 (inhibition)” value (Jeko-1)?
The value was “T (T=0.5 to <0.7)”.

And the “Synergy Score (growth inhibition)” value (Jeko-1)?
Its value is “A2 (A2=1 to <3)”.

What about the “Synergy Score (inhibition)” value (Jeko-1) of the same compound?
The value was “A2 (A2=1 to <3)”.

And the “CI50 (growth inhibition)” value (NCI-H929)?
The value was “U (U=0.7 to <1)”.

And the “CI50 (inhibition)” value (NCI-H929)?
The value was “S (S=0.01 to <0.5)”.

What about the “Synergy Score (growth inhibition)” value (NCI-H929) of the same compound?
The value was “A2 (A2=1 to <3)”.

What about the “Synergy Score (inhibition)” value (NCI-H929) of the same compound?
Its value is “A1 (A1=0.0001 to <1)”.

What about the “Synergy Score (growth inhibition)” value (KARPAS-299) of the same compound?
Its value is “A1 (A1=0.0001 to <1)”.

And the “Synergy Score (inhibition)” value (KARPAS-299)?
The value was “A1 (A1=0.0001 to <1)”.

What about the “CI50 (growth inhibition)” value (TMD8) of the same compound?
The value was “S (S=0.01 to <0.5)”.

What about the “CI50 (inhibition)” value (TMD8) of the same compound?
Its value is “S (S=0.01 to <0.5)”.

And the “Synergy Score (growth inhibition)” value (TMD8)?
The value was “A3 (A3=>3)”.

And the “Synergy Score (inhibition)” value (TMD8)?
The value was “A3 (A3=>3)”.

And the “CI50 (growth inhibition)” value (KARPAS-422)?
Its value is “S (S=0.01 to <0.5)”.

And the “CI50 (inhibition)” value (KARPAS-422)?
The value was “S (S=0.01 to <0.5)”.

What about the “Synergy Score (growth inhibition)” value (KARPAS-422) of the same compound?
The value was “A2 (A2=1 to <3)”.

And the “Synergy Score (inhibition)” value (KARPAS-422)?
The value was “A2 (A2=1 to <3)”.

What about the “CI50 (growth inhibition)” value (DOHH-2) of the same compound?
Its value is “S (S=0.01 to <0.5)”.

And the “CI50 (inhibition)” value (DOHH-2)?
Its value is “S (S=0.01 to <0.5)”.

What about the “Synergy Score (growth inhibition)” value (DOHH-2) of the same compound?
Its value is “A3 (A3=>3)”.

What about the “Synergy Score (inhibition)” value (DOHH-2) of the same compound?
Its value is “A3 (A3=>3)”.

What about the “CI50 (growth inhibition)” value (HH) of the same compound?
Its value is “S (S=0.01 to <0.5)”.

What about the “CI50 (inhibition)” value (HH) of the same compound?
Its value is “S (S=0.01 to <0.5)”.

What about the “Synergy Score (growth inhibition)” value (HH) of the same compound?
Its value is “A2 (A2=1 to <3)”.

And the “Synergy Score (inhibition)” value (HH)?
Its value is “A2 (A2=1 to <3)”.

What about the “CI50 (growth inhibition)” value (Mino) of the same compound?
The value was “T (T=0.5 to <0.7)”.

What about the “CI50 (inhibition)” value (Mino) of the same compound?
The value was “S (S=0.01 to <0.5)”.

And the “Synergy Score (growth inhibition)” value (Mino)?
Its value is “A3 (A3=>3)”.

What about the “Synergy Score (inhibition)” value (Mino) of the same compound?
Its value is “A2 (A2=1 to <3)”.

And the “CI50 (growth inhibition)” value (Farage)?
The value was “S (S=0.01 to <0.5)”.

What about the “CI50 (inhibition)” value (Farage) of the same compound?
The value was “S (S=0.01 to <0.5)”.

And the “Synergy Score (growth inhibition)” value (Farage)?
Its value is “A3 (A3=>3)”.

And the “Synergy Score (inhibition)” value (Farage)?
Its value is “A3 (A3=>3)”.

What about the “inhibition of the increase in phospho-AKT” value [1] of the same compound?
Its value is “only partially inhibited”.

What about the “inhibition of phospho-BTK” value (phospho-BTK in SU-DHL-4) of the same compound?
The value was “robust inhibition”.

What about the “cell viability, monotherapy” value [2] of the same compound?
The value was “dose dependently inhibited viability”.

What about the “CI50 (growth inhibition)” value (RL) of the same compound?
The value was “U (U=0.7 to <1)”.

What about the “CI50 (inhibition)” value (RL) of the same compound?
The value was “W (W=≧1)”.

And the “Synergy Score (growth inhibition)” value (RL)?
Its value is “A2 (A2=1 to <3)”.

What about the “Synergy Score (inhibition)” value (RL) of the same compound?
Its value is “A2 (A2=1 to <3)”.
